# Structures can show the parent of a compound that is named as a salt.
# Target: T1, recombinant full-length WRN protein (1-1432) (Homo sapiens, UniProt Q14191)
# T1 construct: recombinant full-length WRN protein (1-1432)
# Experiment: WRN unwinding activity, fluorogenic 384-well assay (Example A)
# Assay type: biochemical
# Conditions: WRN unwinding activity, 4 hr; Table 2; read-out: 4 hr UNW pIC50 (converted)
# Outline: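 Read-out is end-point unwinding of a fluorophore/quencher duplex (ex 525, em 598 nm) after 60 min with 200 μM ATP and 12 nM DNA (2× stocks), EDTA stop. Compound first sat 4 h with 200 pM WRN (2× stock) in pH 8.0 Tris buffer; four-parameter fit gives pIC50.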
# T1 sequence (Q14191 whole entry): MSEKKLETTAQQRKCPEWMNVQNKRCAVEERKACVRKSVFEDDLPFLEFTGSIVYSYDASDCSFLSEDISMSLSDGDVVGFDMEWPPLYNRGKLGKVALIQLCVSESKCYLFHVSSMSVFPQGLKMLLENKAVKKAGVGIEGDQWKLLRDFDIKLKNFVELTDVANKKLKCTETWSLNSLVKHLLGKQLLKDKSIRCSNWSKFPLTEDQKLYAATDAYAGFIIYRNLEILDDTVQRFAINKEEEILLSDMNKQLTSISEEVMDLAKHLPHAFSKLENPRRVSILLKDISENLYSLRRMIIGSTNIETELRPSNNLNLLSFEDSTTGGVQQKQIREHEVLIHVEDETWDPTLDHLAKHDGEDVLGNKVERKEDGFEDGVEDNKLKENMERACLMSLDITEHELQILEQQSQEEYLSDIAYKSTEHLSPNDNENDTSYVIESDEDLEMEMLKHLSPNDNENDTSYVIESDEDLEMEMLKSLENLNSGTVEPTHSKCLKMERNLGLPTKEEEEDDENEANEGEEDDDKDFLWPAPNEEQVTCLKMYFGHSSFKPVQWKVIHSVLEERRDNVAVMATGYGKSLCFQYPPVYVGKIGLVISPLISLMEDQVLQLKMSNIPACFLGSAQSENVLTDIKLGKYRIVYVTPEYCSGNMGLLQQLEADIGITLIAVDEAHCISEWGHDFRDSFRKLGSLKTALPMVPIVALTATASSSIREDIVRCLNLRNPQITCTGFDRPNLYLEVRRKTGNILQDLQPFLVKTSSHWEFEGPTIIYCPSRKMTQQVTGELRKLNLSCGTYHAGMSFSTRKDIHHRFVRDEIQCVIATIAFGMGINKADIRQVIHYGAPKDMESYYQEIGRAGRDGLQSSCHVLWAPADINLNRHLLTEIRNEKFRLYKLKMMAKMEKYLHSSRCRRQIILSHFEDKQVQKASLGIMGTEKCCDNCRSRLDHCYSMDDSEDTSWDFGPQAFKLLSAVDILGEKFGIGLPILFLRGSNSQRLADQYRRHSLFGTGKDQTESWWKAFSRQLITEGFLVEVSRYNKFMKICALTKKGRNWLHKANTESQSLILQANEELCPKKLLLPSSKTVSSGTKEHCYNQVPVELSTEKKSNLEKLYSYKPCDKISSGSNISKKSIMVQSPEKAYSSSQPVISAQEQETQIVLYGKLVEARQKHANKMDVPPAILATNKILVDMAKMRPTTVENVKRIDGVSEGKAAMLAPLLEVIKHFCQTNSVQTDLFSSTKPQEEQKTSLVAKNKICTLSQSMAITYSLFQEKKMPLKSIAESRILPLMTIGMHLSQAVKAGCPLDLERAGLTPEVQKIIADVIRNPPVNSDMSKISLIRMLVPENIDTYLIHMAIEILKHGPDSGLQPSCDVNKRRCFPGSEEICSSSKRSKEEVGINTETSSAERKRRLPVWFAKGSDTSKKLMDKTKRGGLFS
row,Structure (SMILES),IC50 [nM]
1,"Cc1nc2cc(S(=O)(=O)N(C)c3ccc([C@@H]4C[C@H](OC5CCC5)C[C@H](C(=O)Nc5ccc(C(F)(F)F)cc5F)[C@H]4C(=O)O)cc3)ccc2n1C (stereo in doubt) [Example 326, rel-(1R,2R,4R,6S)-4-cyclobutoxy-2-((2-fluoro-4-(trifluoromethyl)phenyl)carbamoyl)-6-(4-((N,1,2-trimethyl-1H-benzo[d]imidazole)-5-sulfonamido)phenyl)cyclohexane-1-carboxylic acid]",631
2,"Cc1nc2cc(S(=O)(=O)N(C)c3ccc([C@@H]4C[C@@H](NCC(F)(F)F)C[C@H](C(=O)Nc5ccc(C(F)(F)F)cc5F)[C@H]4C(=O)O)cc3)ccc2n1C (stereo in doubt) [Example 335, rel-(1R,2R,4S,6S)-2-((2-fluoro-4-(trifluoromethyl)phenyl)carbamoyl)-4-((2,2,2-trifluoroethyl)amino)-6-(4-((N,1,2-trimethyl-1H-benzo[d]imidazole)-5-sulfonamido)phenyl)cyclohexane-1-carboxylic acid]",2510
3,"Cc1cc(N(C)S(=O)(=O)c2ccc3c(c2)nc(C)n3C)ccc1[C@@H]1CCC[C@H](C(=O)Nc2ccc(C(F)(F)F)cc2F)[C@H]1C(=O)O (stereo in doubt) [Example 385, rel-(1R,2R,6S)-2-((2-fluoro-4-(trifluoromethyl)phenyl)carbamoyl)-6-(2-methyl-4-((N,1,2-trimethyl-1H-benzo[d]imidazole)-5-sulfonamido)phenyl)cyclohexane-1-carboxylic acid]",1260
4,"Cc1nc2cc(S(=O)(=O)N(C)c3ccc([C@H]4C[C@]5(CCCO5)C[C@@H](C(=O)Nc5ccc(C(F)(F)F)cc5F)[C@@H]4C(=O)O)cc3)ccc2n1C (stereo in doubt) [Example 388, rel-(5R,7R,8R,9S)-7-((2-fluoro-4-(trifluoromethyl)phenyl)carbamoyl)-9-(4-((N,1,2-trimethyl-1H-benzo[d]imidazole)-5-sulfonamido)phenyl)-1-oxaspiro[4.5]decane-8-carboxylic acid]",3.98
5,"Cc1nc2cc(S(=O)(=O)N(C)c3ccc([C@H]4C[C@@H]5COC[C@@H]5[C@@H](C(=O)Nc5ccc(C(F)(F)F)cc5F)[C@@H]4C(=O)O)cc3)ccc2n1C (stereo in doubt) [Example 393, rel-(3aR,4S,5S,6R,7aR)-4-((2-fluoro-4-(trifluoromethyl)phenyl)carbamoyl)-6-(4-((N,1,2-trimethyl-1H-benzo[d]imidazole)-5-sulfonamido)phenyl)octahydroisobenzofuran-5-carboxylic acid]",251
6,"Cc1nc2cc(S(=O)(=O)N(C)c3ccc([C@@H]4C[C@H]5COC[C@H]5[C@H](C(=O)Nc5ccc(C(F)(F)F)cc5F)[C@H]4C(=O)O)cc3)ccc2n1C (stereo in doubt) [Example 394, rel-(3aR,4S,5S,6R,7aR)-4-((2-fluoro-4-(trifluoromethyl)phenyl)carbamoyl)-6-(4-((N,1,2-trimethyl-1H-benzo[d]imidazole)-5-sulfonamido)phenyl)octahydroisobenzofuran-5-carboxylic acid]",501
7,"Cc1cn2nc(-c3ccc([C@H]4CCC[C@@H](C(=O)Nc5ccc(C(F)(F)F)cc5F)[C@@H]4C(=O)O)cc3)ccc2n1 [Example 22, (1R,2R,6S)-2-((2-fluoro-4-(trifluoromethyl)phenyl)carbamoyl)-6-(4-(2-methylimidazo[1,2-b]pyridazin-6-yl)phenyl)cyclohexane-1-carboxylic acid]",1000
8,"Cc1nsc(-c2ccc([C@H]3CCC[C@@H](C(=O)Nc4ccc(C(F)(F)F)cc4F)[C@@H]3C(=O)O)cc2)c1O [Example 28, (1R,2R,6S)-2-((2-fluoro-4-(trifluoromethyl)phenyl)carbamoyl)-6-(4-(4-hydroxy-3-methylisothiazol-5-yl)phenyl)cyclohexane-1-carboxylic acid]",31.6
9,"O=C(O)[C@@H]1[C@@H](c2ccc(-c3ccc4nnnn4n3)cc2)CCC[C@H]1C(=O)Nc1ccc(C(F)(F)F)cc1F [Example 29, (1R,2R,6S)-2-((2-fluoro-4-(trifluoromethyl)phenyl)carbamoyl)-6-(4-(tetrazolo[1,5-b]pyridazin-6-yl)phenyl) cyclohexane-1-carboxylic acid]",3980
10,"O=C(O)[C@@H]1[C@@H](c2ccc(-c3ncnc4sccc34)cc2)CCC[C@H]1C(=O)Nc1ccc(C(F)(F)F)cc1F [Example 34, (1R,2R,6S)-2-((2-fluoro-4-(trifluoromethyl)phenyl)carbamoyl)-6-(4-(thieno[2,3-d]pyrimidin-4-yl)phenyl)cyclohexane-1-carboxylic acid]",2510

# Further lines, results first:
row,IC50 [nM],Structure (SMILES)
1,1000,"O=C(O)[C@@H]1[C@@H](c2ccc(-c3ccccc3CN3CCOCC3)cc2)CCC[C@H]1C(=O)Nc1ccc(C(F)(F)F)cc1F [Example 4, (1R,2R,6S)-2-((2-fluoro-4-(trifluoromethyl)phenyl)carbamoyl)-6-(2′-(morpholinomethyl)-[1,1′-biphenyl]-4-yl)cyclohexane-1-carboxylic acid]"
2,20,"O=C(O)[C@@H]1[C@@H](c2ccc(-c3ccn[nH]3)cc2)CCC[C@H]1C(=O)Nc1ccc(C(F)(F)F)cc1F [Example 5, (1R,2S,6R)-2-(4-(1H-pyrazol-5-yl)phenyl)-6-((2-fluoro-4-(trifluoromethyl)phenyl)carbamoyl)cyclohexane-1-carboxylic acid]"
3,100,"O=C(O)[C@@H]1[C@@H](c2ccc(-c3ccncc3)cc2)CCC[C@H]1C(=O)Nc1ccc(C(F)(F)F)cc1F [Example 7, (1R,2R,6S)-2-((2-fluoro-4-(trifluoromethyl)phenyl)carbamoyl)-6-(4-(pyridin-4-yl)phenyl)cyclohexane-1-carboxylic acid]"
4,63.1,"Cn1cc(-c2ccc([C@H]3CCC[C@@H](C(=O)Nc4ccc(C(F)(F)F)cc4F)[C@@H]3C(=O)O)cc2)cn1 [Example 12, (1R,2R,6S)-2-((2-fluoro-4-(trifluoromethyl)phenyl)carbamoyl)-6-(4-(1-methyl-1H-pyrazol-4-yl)phenyl)cyclohexane-1-carboxylic acid]"
5,63.1,"Cc1ncccc1-c1ccc([C@H]2CCC[C@@H](C(=O)Nc3ccc(C(F)(F)F)cc3F)[C@@H]2C(=O)O)cc1 [Example 13, (1R,2R,6S)-2-((2-fluoro-4-(trifluoromethyl)phenyl)carbamoyl)-6-(4-(2-methylpyridin-3-yl)phenyl)cyclohexane-1-carboxylic acid, formic acid salt]"
6,7.94,"O=C(O)[C@@H]1[C@@H](c2ccc(-c3cccc(O)n3)cc2)CCC[C@H]1C(=O)Nc1ccc(C(F)(F)F)cc1F [Example 14, (1R,2R,6S)-2-((2-fluoro-4-(trifluoromethyl)phenyl)carbamoyl)-6-(4-(6-hydroxypyridin-2-yl)phenyl)cyclohexane-1-carboxylic acid]"
7,20,"O=C(O)[C@@H]1[C@@H](c2ccc(-c3cnn4c3CCC4)cc2)CCC[C@H]1C(=O)Nc1ccc(C(F)(F)F)cc1F [Example 17, (1R,2S,6R)-2-(4-(5,6-dihydro-4H-pyrrolo[1,2-b]pyrazol-3-yl)phenyl)-6-((2-fluoro-4-(trifluoromethyl)phenyl)carbamoyl)cyclohexane-1-carboxylic acid]"
8,316,"O=C(O)[C@@H]1[C@@H](c2ccc(-c3ccccc3COC3CCOCC3)cc2)CCC[C@H]1C(=O)Nc1ccc(C(F)(F)F)cc1F [Example 19, (1R,2R,6S)-2-((2-fluoro-4-(trifluoromethyl)phenyl)carbamoyl)-6-(2′-(((tetrahydro-2H-pyran-4-yl)oxy)methyl)-[1,1′-biphenyl]-4-yl) cyclohexane-1-carboxylic acid]"
9,6310,"O=C(Cc1cccc(-c2ccc([C@H]3CCC[C@@H](C(=O)Nc4ccc(C(F)(F)F)cc4F)[C@@H]3C(=O)O)cc2)c1)NC1CC1 [Example 20, (1R,2S,6R)-2-(3′-(2-(cyclopropylamino)-2-oxoethyl)-[1,1′-biphenyl]-4-yl)-6-((2-fluoro-4-(trifluoromethyl)phenyl)carbamoyl)cyclohexane-1-carboxylic acid]"
10,7940,"O=C(O)[C@@H]1[C@@H](c2ccc(-c3cccc(COC4CCOCC4)c3)cc2)CCC[C@H]1C(=O)Nc1ccc(C(F)(F)F)cc1F [Example 21, (1R,2R,6S)-2-((2-fluoro-4-(trifluoromethyl)phenyl)carbamoyl)-6-(3′-(((tetrahydro-2H-pyran-4-yl)oxy)methyl)-[1,1′-biphenyl]-4-yl) cyclohexane-1-carboxylic acid]"
11,126,"O=C(O)[C@@H]1[C@@H](c2ccc(-c3cnn(CC4CC4)c3)cc2)CCC[C@H]1C(=O)Nc1ccc(C(F)(F)F)cc1F [Example 23, (1R,2S,6R)-2-(4-(1-(cyclopropylmethyl)-1H-pyrazol-4-yl)phenyl)-6-((2-fluoro-4-(trifluoromethyl)phenyl)carbamoyl)cyclohexane-1-carboxylic acid]"
12,10000,"COC(=O)c1cncc(-c2ccc([C@H]3CCC[C@@H](C(=O)Nc4ccc(C(F)(F)F)cc4F)[C@@H]3C(=O)O)cc2)c1 [Example 26, (1R,2R,6S)-2-((2-fluoro-4-(trifluoromethyl)phenyl)carbamoyl)-6-(4-(5-(methoxycarbonyl)pyridin-3-yl)phenyl)cyclohexane-1-carboxylic acid]"
13,6310,"O=C(O)[C@@H]1[C@@H](c2ccc(-c3ccc4nncn4n3)cc2)CCC[C@H]1C(=O)Nc1ccc(C(F)(F)F)cc1F [Example 30, (1R,2S,6R)-2-(4-([1,2,4]triazolo[4,3-b]pyridazin-6-yl)phenyl)-6-((2-fluoro-4-(trifluoromethyl)phenyl)carbamoyl)cyclohe xane-1-carboxylic acid]"
14,126,"COC(=O)c1sccc1-c1ccc([C@H]2CCC[C@@H](C(=O)Nc3ccc(C(F)(F)F)cc3F)[C@@H]2C(=O)O)cc1 [Example 33, (1R,2R,6S)-2-((2-fluoro-4-(trifluoromethyl)phenyl)carbamoyl)-6-(4-(2-(methoxycarbonyl)thiophen-3-yl)phenyl)cyclohexane-1-carboxylic acid]"

# Source: patent US12662451B2, “Chemical compounds and uses thereof” (GLAXOSMITHKLINE INTELLECTUAL PROPERTY (NO.4) LIMITED, priority 2023, dated 2026)
